Tested on: HIV-1 clinical isolates grouped by RT mutations
Experiment: Pairwise comparison of NNRTI fold change between groups of clinical isolates (Student's T-test, Bonferroni's Multiple Comparison Test)
Assay type: cell-based
Procedure: This example provides methods and compositions for identifying mutations that correlate with hypersusceptibility to a NNRTI. Resistance test vectors were constructed and used as described in Example 1. Resistance test vectors derived from patient samples or clones derived from the resistance test vector pools were tested in a resistance assay to determine accurately and quantitatively the relative EFV, DLV, or NVP resistance or susceptibility compared to the median observed resistance or susceptibility.
To identify mutations associated with NNRTI hypersusceptibility, the following analysis was performed. […] The TAMs referenced in. Table 1 include M41L, D67N, K70R, L210W, T215FY, and K219X, while the NAMs referenced include K65R, T69X, L74IV, V75X, and M184IV. Isolates without NRTI, NNRTI or PI mutations served as a wild type (WT) reference group. Further comparison groups comprised isolates with three TAMS including T215Y (+/−H208Y, +/−V118I) or three TAMS including K70R. Scatter plots and statistical tests (See FIGS. 1-6) were generated using Prism 4.0 (GraphPad, San Diego, Calif.)
In addition, a pairwise comparison between two sets of data was conducted using Bonferroni's Multiple Comparison Test using the Prism 4.0 software. The results of the comparison are presented in Tables 2, 3, and 4, appended to the end of this document. Samples with K65R, K65R+M184V, or 2 TAMs in combination with T215Y had over 40% with EFV FC<0.4.

## O=C1Nc2ccc(Cl)cc2[C@@](C#CC2CC2)(C(F)(F)F)O1 [EFV, efavirenz]
1 NAM vs 2 NAMs
  Mean Diff. of fold change: 0.1722
1 NAM vs 3 NAMs
  Mean Diff. of fold change: 0.1256
1 NAM vs K65R
  Mean Diff. of fold change: 0.1565
1 NAM vs K65R + M184V
  Mean Diff. of fold change: 0.2694
1 NAM vs K70R_3_TAMs
  Mean Diff. of fold change: −0.02778
1 NAM vs M184V
  Mean Diff. of fold change: 0.001657
1 NAM vs T69
  Mean Diff. of fold change: −0.09534
1 NAM vs T215Y_3_TAMs
  Mean Diff. of fold change: 0.2651
1 NAM vs T215Y_3_TAMs_118
  Mean Diff. of fold change: 0.3291
1 NAM vs T215Y_3_TAMs_208
  Mean Diff. of fold change: 0.3294
1 NAM vs T215Y_3_TAMs_no118
  Mean Diff. of fold change: 0.2225
1 NAM vs T215Y_3_TAMs_no208
  Mean Diff. of fold change: 0.2549
2 NAMs vs 3 NAMs
  Mean Diff. of fold change: −0.04654
2 NAMs vs K65R
  Mean Diff. of fold change: −0.01562
2 NAMs vs K65R + M184V
  Mean Diff. of fold change: 0.09723
2 NAMs vs K70R_3_TAMs
  Mean Diff. of fold change: −0.1999
2 NAMs vs M184V
  Mean Diff. of fold change: −0.1705
2 NAMs vs T69
  Mean Diff. of fold change: −0.2675
2 NAMs vs T215Y_3_TAMs
  Mean Diff. of fold change: 0.09297
2 NAMs vs T215Y_3_TAMs_118
  Mean Diff. of fold change: 0.1569
2 NAMs vs T215Y_3_TAMs_208
  Mean Diff. of fold change: 0.1573
2 NAMs vs T215Y_3_TAMs_no118
  Mean Diff. of fold change: 0.05035
2 NAMs vs T215Y_3_TAMs_no208
  Mean Diff. of fold change: 0.08272
3 NAMs vs K65R
  Mean Diff. of fold change: 0.03092
3 NAMs vs K65R + M184V
  Mean Diff. of fold change: 0.1438
3 NAMs vs K70R_3_TAMs
  Mean Diff. of fold change: −0.1534
3 NAMs vs M184V
  Mean Diff. of fold change: −0.124
3 NAMs vs T69
  Mean Diff. of fold change: −0.221
3 NAMs vs T215Y_3_TAMs
  Mean Diff. of fold change: 0.1395
3 NAMs vs T215Y_3_TAMs_118
  Mean Diff. of fold change: 0.2035
3 NAMs vs T215Y_3_TAMs_208
  Mean Diff. of fold change: 0.2038
3 NAMs vs T215Y_3_TAMs_no118
  Mean Diff. of fold change: 0.09689
3 NAMs vs T215Y_3_TAMs_no208
  Mean Diff. of fold change: 0.1293
K65R + M184V vs K70R_3_TAMs
  Mean Diff. of fold change: −0.2972
K65R + M184V vs T215Y_3_TAMs
  Mean Diff. of fold change: −0.004258
K65R + M184V vs T215Y_3_TAMs_118
  Mean Diff. of fold change: 0.05968
K65R + M184V vs T215Y_3_TAMs_208
  Mean Diff. of fold change: 0.06005
K65R + M184V vs T215Y_3_TAMs_no118
  Mean Diff. of fold change: −0.04688
K65R + M184V vs T215Y_3_TAMs_no208
  Mean Diff. of fold change: −0.01451
K65R vs K65R + M184V
  Mean Diff. of fold change: 0.1129
K65R vs K70R_3_TAMs
  Mean Diff. of fold change: −0.1843
K65R vs M184V
  Mean Diff. of fold change: −0.1549
K65R vs T69
  Mean Diff. of fold change: −0.2519
K65R vs T215Y_3_TAMs
  Mean Diff. of fold change: 0.1086
K65R vs T215Y_3_TAMs_118
  Mean Diff. of fold change: 0.1725
K65R vs T215Y_3_TAMs_208
  Mean Diff. of fold change: 0.1729
K65R vs T215Y_3_TAMs_no118
  Mean Diff. of fold change: 0.06597
K65R vs T215Y_3_TAMs_no208
  Mean Diff. of fold change: 0.09835
K70R_3_TAMs vs T215Y_3_TAMs_118
  Mean Diff. of fold change: 0.3569
K70R_3_TAMs vs T215Y_3_TAMs_no118
  Mean Diff. of fold change: 0.2503
M184V vs K65R + M184V
  Mean Diff. of fold change: 0.2677
M184V vs K70R_3_TAMs
  Mean Diff. of fold change: −0.02944
M184V vs T69
  Mean Diff. of fold change: −0.09699
M184V vs T215Y_3_TAMs
  Mean Diff. of fold change: 0.2635
M184V vs T215Y_3_TAMs_118
  Mean Diff. of fold change: 0.3274
M184V vs T215Y_3_TAMs_208
  Mean Diff. of fold change: 0.3278
M184V vs T215Y_3_TAMs_no118
  Mean Diff. of fold change: 0.2209
M184V vs T215Y_3_TAMs_no208
  Mean Diff. of fold change: 0.2532
T69 vs K65R + M184V
  Mean Diff. of fold change: 0.3647
T69 vs K70R_3_TAMs
  Mean Diff. of fold change: 0.06756
T69 vs T215Y_3_TAMs
  Mean Diff. of fold change: 0.3605
T69 vs T215Y_3_TAMs_118
  Mean Diff. of fold change: 0.4244
T69 vs T215Y_3_TAMs_208
  Mean Diff. of fold change: 0.4248
T69 vs T215Y_3_TAMs_no118
  Mean Diff. of fold change: 0.3179
T69 vs T215Y_3_TAMs_no208
  Mean Diff. of fold change: 0.3502
T215Y_3_TAMs vs K70R_3_TAMs
  Mean Diff. of fold change: −0.2929
T215Y_3_TAMs vs T215Y_3_TAMs_118
  Mean Diff. of fold change: 0.06394
T215Y_3_TAMs vs T215Y_3_TAMs_208
  Mean Diff. of fold change: 0.06431
T215Y_3_TAMs vs T215Y_3_TAMs_no118
  Mean Diff. of fold change: −0.04263
T215Y_3_TAMs vs T215Y_3_TAMs_no208
  Mean Diff. of fold change: −0.01025
T215Y_3_TAMs_208 vs K70R_3_TAMs
  Mean Diff. of fold change: −0.3572
T215Y_3_TAMs_208 vs T215Y_3_TAMs_118
  Mean Diff. of fold change: −0.0003693
T215Y_3_TAMs_208 vs T215Y_3_TAMs_no118
  Mean Diff. of fold change: −0.1069
T215Y_3_TAMs_208 vs T215Y_3_TAMs_no208
  Mean Diff. of fold change: −0.07456
T215Y_3_TAMs_no118 vs T215Y_3_TAMs_118
  Mean Diff. of fold change: 0.1066
T215Y_3_TAMs_no208 vs K70R_3_TAMs
  Mean Diff. of fold change: −0.2827
T215Y_3_TAMs_no208 vs T215Y_3_TAMs_118
  Mean Diff. of fold change: 0.07419
T215Y_3_TAMs_no208 vs T215Y_3_TAMs_no118
  Mean Diff. of fold change: −0.03237
All groups containing NAMs or the combination of TAMs shown in Table 1, p<0.0001, Student's T-test
  mean fold change (FC) compared to the WT population: significantly lower
Wt vs 1 NAM
  Mean Diff. of fold change: 0.2652
Wt vs 2 NAMs
  Mean Diff. of fold change: 0.4373
Wt vs 3 NAMs
  Mean Diff. of fold change: 0.3908
Wt vs K65R
  Mean Diff. of fold change: 0.4217
Wt vs K65R + M184V
  Mean Diff. of fold change: 0.5346
Wt vs K70R_3_TAMs
  Mean Diff. of fold change: 0.2374
Wt vs M184V
  Mean Diff. of fold change: 0.2668
Wt vs T69
  Mean Diff. of fold change: 0.1698
Wt vs T215Y_3_TAMs
  Mean Diff. of fold change: 0.5303
Wt vs T215Y_3_TAMs_118
  Mean Diff. of fold change: 0.5942
Wt vs T215Y_3_TAMs_208
  Mean Diff. of fold change: 0.5946
Wt vs T215Y_3_TAMs_no118
  Mean Diff. of fold change: 0.4877
Wt vs T215Y_3_TAMs_no208
  Mean Diff. of fold change: 0.5201

From patent US10202658B2, “Methods for determining hypersusceptibility of HIV-1 to non-nucleoside reverse transcriptase inhibitors” (Monogram Biosciences, Inc., priority 2005, dated 2019)
